Reference: US5011930A, “Quinoline type mevalonolactones” (Nissan Chemical Industries Ltd., priority 1987, dated 1991)
Counter-ions that a name gives are not always drawn.

These molecules were tested on cholesterol biosynthesis (assay: Test A: Inhibition of cholesterol biosynthesis from acetate in vitro). Conditions: [2-^14 C]sodium acetate incorporation into nonsaponifiable lipids, 2 hours at 37° C.; IC50; read-out: Inhibitory activities by Test A: I50 (molar concentration).
Type: biochemical, male Wistar rat (liver microsome and sup fraction)
Experimental: Enzyme solution was prepared from liver of male Wistar rat billialy cannulated and discharged bile for over 24 hours. Liver was cut out at mid-dark and microsome and supernatant fraction which was precipitable with 40-80% of saturation of ammonium sulfate (sup fraction) were prepared from liver homogenate according to the modified method of Knauss et. al.; Kuroda, M., et. al., Biochim. Biophys. Acta, 489, 119 (1977). For assay of cholesterol biosynthesis, microsome (0.1 mg protein) and sup fraction (1.0 mg protein) were incubated for 2 hours at 37° C. in 200 μl of the reaction mixture containing ATP; 1 mM, Glutathione; 6 mM, Glucose-1-phosphate; 10 mM, NAD; 0.25 mM, NADP; 0.25 mM, CoA; 0.04 mM and 0.2 mM [2-^14 C]sodium acetate (0.2 μCi) with 4 μl of test compound solution dissolved in water or dimethyl sulfoxide. To stop reaction and saponify, 1 ml of 15% EtOH-KOH was added to the reactions and heated at 75° C. for 1 hour. […] Inhibitory activity of compounds was indicated with IC50.

| SMILES | IC50 |
| --- | --- |
| CC(C)c1nc2ccccc2c(-c2ccc(F)cc2)c1/C=C/C(O)CC(O)CC(=O)O (stereo not drawn) [I-51, Sodium salt of (E)-3,5-dihydroxy-7-[4'-(4"-fluorophenyl)-2'-(1"-methylethyl)-quinolin-3'-yl]-hept-6-enoic acid] | 10 nM |
| Cc1nc2ccccc2c(-c2ccc(F)cc2)c1/C=C/C(O)CC(O)CC(=O)O (stereo not drawn) [I-52] | 71 nM |
| CC[C@H](C)C(=O)O[C@H]1C[C@H](O)C=C2C=C[C@H](C)[C@H](CC[C@@H](O)C[C@@H](O)CC(=O)O)[C@H]21 [CS-514, reference compound] | 9 nM |
| CC[C@H](C)C(=O)O[C@H]1C[C@@H](C)C=C2C=C[C@H](C)[C@H](CC[C@@H]3C[C@@H](O)CC(=O)O3)[C@H]21 [Mevinolin, reference compound] | 14 nM |
| CCOC(=O)CC(O)CC(O)/C=C/c1c(C)nc2ccccc2c1-c1ccccc1 (stereo not drawn) [I-13] | 125 nM |
| Cc1nc2ccccc2c(-c2ccccc2)c1/C=C/C(O)CC(O)CC(=O)O (stereo not drawn) [I-53] | 190 nM |

Same assay, conditions: relative to the activity of CS-514 being evaluated to be 1

| SMILES | Relative activities by Test A |
| --- | --- |
| CCOC(=O)CC(O)CC(O)/C=C/c1c(C(C)C)nc2ccc(Cl)cc2c1-c1ccccc1 (stereo not drawn) [I-16] | 1.75 |
| CCOC(=O)CC(O)CC(O)/C=C/c1c(CC)nc2ccccc2c1-c1ccc(F)cc1 (stereo not drawn) [I-117] | 0.37 |
| CCOC(=O)CC(O)CC(O)/C=C/c1c(C(C)C)nc2cc(OC)c(OC)cc2c1-c1ccc(F)cc1 (stereo not drawn) [I-116] | 2.25 |
| CCOC(=O)CC(O)CC(O)/C=C/c1c(C2CC2)nc2ccccc2c1-c1ccc(F)cc1 (stereo not drawn) [I-120] | 3.21 |
| CC(C)c1nc2c(Cl)cc(Cl)cc2c(-c2ccc(F)cc2)c1/C=C/C(O)CC(O)CC(=O)O (stereo not drawn) [I-522] | 0.76 |

These molecules were tested on cholesterol biosynthesis in Hep G2 cells (assay: Test B-1: Inhibition of cholesterol biosynthesis in culture cells (Hep G2)). Conditions: Homo sapiens, HepG2, [2-^14 C]sodium acetate added at 0 hr after addition of compounds, 4 hrs incubation, read-out: Inhibitory activities by Test B-1: I50 (molar concentration).
Type: cell-based
Experimental: Hep G2 cells at over 5th passage were seeded to 12 well plates and incubated with Dulbecco's modified Eagle (DME) medium containing 10% of fetal bovine serum (FBS) at 37° C., 5% CO2 until cells were confluent for about 7 days. Cells were exposed to the DME medium containing 5% of lipoprotein deficient serum (LpDS) prepared by ultracentrifugation method for over 24 hours. Medium was changed to 0.5 ml of fresh 5% LpDS containing DME before assay and 10 μl of test compound solution dissolved in water or DMSO were added. 0.2 μCi of [2-^14 C]sodium acetate (20 μl) was added at 0 hr(B-1) or 4 hrs(B-2) after addition of compounds. After 4 hrs further incubation with [2-^14 C]sodium acetate, medium was removed and cells were washed with phosphate buffered saline(PBS) chilled at 4° C. Cells were scraped with rubber policeman and collected to tubes with PBS and digested with 0.2 ml of 0.5 N KOH at 37° C. Aliquot of digestion was used for protein analysis and remaining was saponified with 1 ml of 15% EtOH--KOH at 75° C. for 1 hour. […] Counts were revised by cell protein and indicated with DPM/mg protein. Inhibitory activity of compounds was indicated with IC50.

| SMILES | IC50 |
| --- | --- |
| CC(C)c1nc2ccccc2c(-c2ccc(F)cc2)c1/C=C/C(O)CC(O)CC(=O)O (stereo not drawn) [I-51, Sodium salt of (E)-3,5-dihydroxy-7-[4'-(4"-fluorophenyl)-2'-(1"-methylethyl)-quinolin-3'-yl]-hept-6-enoic acid] | 100 nM |

Same assay, conditions: relative to the activity of CS-514 being evaluated to be 1

| SMILES | Relative activities by Test B-1 |
| --- | --- |
| CCOC(=O)CC(=O)CC(O)/C=C/c1c(C2CC2)nc2ccccc2c1-c1ccc(F)cc1 (stereo not drawn) [II-20] | 20.8 |
| O=C(O)CC(O)CC(O)/C=C/c1c(C2CC2)nc2ccccc2c1-c1ccc(F)cc1 (stereo not drawn) [I-520] | 20.0 |
| CCOC(=O)CC(O)CC(O)/C=C/c1c(C(C)C)nc2cc(OC)c(OC)cc2c1-c1ccc(F)cc1 (stereo not drawn) [I-116] | 19.4 |
